Earlier results, collected in patent publication US9272036B2, “Carbon dioxide, saline and additional active nasal delivery methods and treatments” (CLOVER HILL HEALTHCARE, INC., priority 2012, dated 2016).

System: subjects with SAR

sensation reported by subjects during exposure (during 20-second intranasal exposure): transient burning sensation
SMILES: O=C=O [CO(2), carbon dioxide]
histamine levels in ipsilateral nasal secretions (after pretreatment with CO(2), increased significantly with sham treatment): did not increase
ipsilateral secretion weights (nasal allergen challenge 30 minutes after 20-second CO(2) exposure, compared with no treatment): numerically reduced
bilateral runny nose symptoms (nasal allergen challenge 30 minutes after 20-second CO(2) exposure, compared with no treatment, p=0.01): significant reduction
contralateral secretion weights (reflex secretory response, primary outcome) (nasal allergen challenge 30 minutes after 20-second CO(2) exposure, compared with no treatment, p=0.04): significant reduction
sneezes (nasal allergen challenge (grass or ragweed) 30 minutes after 20-second CO(2) exposure, compared with no treatment, p=0.05): significant reduction
acute response to allergen challenge (overall) (treatment with nasal CO(2)): partial reduction
